As a reminder, the IC50 is the concentration needed to halve the response being measured.

The target of this assay is T1, recombinant His-tagged cytoplasmic domains of TRKA receptor (NTRK1, PV3144, aa 441-796) (Homo sapiens, UniProt P04629).
T1 construct: aa 441-796; His; purchased Invitrogen PV3144
T1 sequence (P04629 441-796): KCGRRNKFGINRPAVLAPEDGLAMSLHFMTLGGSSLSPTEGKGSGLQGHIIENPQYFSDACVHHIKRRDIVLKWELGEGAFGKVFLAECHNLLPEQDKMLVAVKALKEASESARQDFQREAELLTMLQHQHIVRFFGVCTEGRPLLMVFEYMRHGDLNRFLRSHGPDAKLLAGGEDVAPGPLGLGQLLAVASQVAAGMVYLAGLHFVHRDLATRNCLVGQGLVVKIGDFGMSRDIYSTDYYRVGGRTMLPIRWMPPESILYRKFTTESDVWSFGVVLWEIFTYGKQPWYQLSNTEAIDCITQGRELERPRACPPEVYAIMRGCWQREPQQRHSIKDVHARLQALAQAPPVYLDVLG
Description: Isolated TRK enzyme assay (HTRF KinEASE-TK, PV3144 TrkA enzyme assay). It is filed as biochemical. The conditions noted are these: 4 nM enzyme, 40 uM ATP, 35 min, arithmetic mean where more than one reading. In outline: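 Enzyme and ATP were preincubated with compound for 20 min at room temperature in buffer with 10 mM MgCl and 2 mM DTT. TK-substrate-Biotin was then added (1 uM final) and the reaction run for an enzyme-specific optimized time. Phosphorylation was read by HTRF, and IC50 values came from sigmoid fits of percent inhibition normalized to plate controls, averaged over replicate readings.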
(TR-FRET usually uses a lanthanide donor and a delayed reading to cut background.)
As for `NC(=O)c1cc(-c2cnn(CCO)c2)ncc1OC1CCN(C(=O)Cc2ccc(OC(F)(F)F)cc2)CC1` [Example 175, 2-[1-(2-hydroxyethyl)-1H-pyrazol-4-yl]-5-[(1-{[4-(trifluoromethoxy)phenyl]acetyl}piperidin-4-yl)oxy]pyridine-4-carboxamide], the IC50 worked out at 0.0171 µM.
The result for `NC(=O)c1cc(-c2cnn(CCO)c2)cnc1OC1CCN(C(=O)Cc2ccc(OC3CC3)cc2)CC1` [Example 176, 2-[(1-{[4-(cyclopropyloxy)phenyl]acetyl}piperidin-4-yl)oxy]-5-[1-(2-hydroxyethyl)-1H-pyrazol-4-yl]pyridine-3-carboxamide] reads 0.0122 µM; that for `NC(=O)c1cc(-c2cc[nH]n2)ccc1OC1CCN(C(=O)Cc2ccc(OC(F)(F)F)cc2)CC1` [Example 177, 5-(1H-pyrazol-3-yl)-2-[(1-{[4-(trifluoromethoxy)phenyl]acetyl}piperidin-4-yl)oxy]benzamide], 0.0123 µM; that for `Cn1cc(-c2ccc(OC3CCN(C(=O)Cc4ccc(OC5CC5)cc4)CC3)c(C(N)=O)c2)cn1` [Example 178, 2-[(1-{[4-(cyclopropyloxy)phenyl]acetyl}piperidin-4-yl)oxy]-5-(1-methyl-1H-pyrazol-4-yl)benzamide], 0.00857 µM.
Consider `Cc1nc[nH]c1-c1cnc(OC2CCN(C(=O)Cc3ccc(OC(F)(F)F)cc3)CC2)c(C(N)=O)c1` [Example 179, 5-(4-methyl-1H-imidazol-5-yl)-2-[(1-{[4-(trifluoromethoxy)phenyl]acetyl}piperidin-4-yl)oxy]pyridine-3-carboxamide], for which the IC50 amounted to 0.0132 µM.
The result for `NC(=O)c1cc(-c2cscn2)cnc1OC1CCN(C(=O)Cc2ccc(OC(F)(F)F)cc2)CC1` [Example 180] reads 0.00826 µM.
As to `Cn1cc(-c2ccc(OC3CCN(C(=O)Nc4ccc(OC5CC5)cc4)CC3)c(C(N)=O)c2)cn1` [Example 181, 4-[2-carbamoyl-4-(1-methyl-1H-pyrazol-4-yl)phenoxy]-N-[4-(cyclopropyloxy)phenyl]piperidine-1-carboxamide], the IC50 is 0.0193 µM.
The result for `Cn1cc(-c2cnc(OC3CCN(C(=O)Cc4ccc(OC(F)(F)F)cc4)CC3)c(C(N)=O)c2)cn1` [Example 182, 5-(1-methyl-1H-pyrazol-4-yl)-2-[(1-{[4-(trifluoromethoxy)phenyl]acetyl}piperidin-4-yl)oxy]pyridine-3-carboxamide] reads 0.0151 µM; that for `NC(=O)c1cc(-c2c[nH]c(C(F)(F)F)n2)cnc1O[C@@H]1CCN(C(=O)Cc2ccc(OC(F)(F)F)cc2)C[C@@H]1F` [Example 183, 2-{[(3S,4R)-3-fluoro-1-{[4-(trifluoromethoxy)phenyl]acetyl}piperidin-4-yl]oxy}-5-[2-(trifluoromethyl)-1H-imidazol-4-yl]pyridine-3-carboxamide], 0.00712 µM.

The record behind these values is US20170305857A1, “N-ACYLPIPERIDINE ETHER TROPOMYOSIN-RELATED KINASE INHIBITORS” (Pfizer Limited, priority 2014, published 2017).
